Like-named read-outs stand apart in the source and are kept apart here.
What was measured:
RSV strain A2 = assay: RSV antiviral assay (Hep2), EC50-Hep2/B1-384; format: cell-based; details: human respiratory syncytial virus, HEp-2, 96 h; Hep2 cells, 4 days, Cell-Titer Glo
SARS-CoV-2-Nluc viruses = assay: microbe, parasite or virus in culture; format: cell-based
in vitro [1] = format: cell-based; details: human
Protocol: The cytotoxicity of compounds was determined in A549-hACE2 cells in the following manner. Compounds (200 nL) were spotted onto 384-well Grenier plates prior to seeding 5000 A549-hACE2 cells/well in a volume of 40 μL culture medium. The plates were incubated at 37° C. for 48 hours with 5% CO2. On day 2, 40 μL of CellTiter-Glo (Promega) was added and mixed 5 times.

[2] = test system: RSV-Fluc (Respiratory Syncytial virus strain A2 containing the firefly luciferase reporter); assay: microbe, parasite or virus in culture; format: cell-based; details: human respiratory syncytial virus, 72 h, NHBE cells, three days
[3] = format: in vivo, Sprague-Dawley rats; details: male Sprague-Dawley rats, oral NHC 10 mg/kg
Protocol: β-d-N^4-hydroxycytidine (NHC) was dosed orally by gavage to male Sprague-Dawley rats (n=3) at 10 mg/kg in 3.9% citric acid and 96.1% water, pH 2.8; Molnupiravir at 12.7 mg/kg in 2.5% kolliphor RH 40, 10% polyethylene glycol 300 and 87.5% water, pH 5.3. […]

in vitro [4] = format: in vitro ADME, Human; details: 2 μM substrate, 1.0 mg/mL protein, pH 7.4
Protocol: Duplicate aliquots of test compound or positive control substrate (GS-7340) were added to S9 stock diluted with 100 mM phosphate buffered saline, pH 7.4, to obtain a protein concentration of 1.0 mg/mL. The S9 metabolic reactions were initiated by the addition of the substrates to the S9 reaction mixture to a final concentration of 2 μM. At 0, 10, 20, 30, 60 and 120 min, 25 μL aliquots of the reaction mixture were transferred to plates containing 225 μl of IS/Q solution. After quenching, the plates were centrifuged at 3000×g for 30 minutes, and 150 μL aliquots of each supernatant were diluted with 150 μL water. Aliquots (10 μL) of the diluted supernatant were analyzed on a Thermo Q-Exactive mass spectrometer as described below.
Quantification of test compounds and controls was performed by analyte/internal standard peak area ratio (PAR) values measured on a Thermo Q-Exactive mass spectrometer coupled to a Dionex UltiMate 3000 HPLC with a Leap Technologies HTC PAL autosampler. The column used was a Thermo Hypersil GOLD (1.9 μm particle size, 2.1×50 mm). Mobile phase A consisted of 0.1% (v/v) formic acid in water. Mobile phase B consisted of 0.1% (v/v) formic acid in acetonitrile. Elution of analytes was achieved by a series of linear gradients of acetonitrile in water containing 0.1% (v/v) formic acid. The mass spectrometer was calibrated on a weekly basis and mass tolerance of 5 ppm was used.

in vitro [5] = details: African green monkey
in vitro [6] = details: hamster
in vitro [7] = details: human, PrestoBlue
[8] = Severe acute respiratory syndrome coronavirus 2, 48 h, read-out: SARS-CoV2 EC50

| Compound | EC50 (RSV strain A2) [nM] | EC50 (SARS-CoV-2-Nluc viruses; [8]) [nM] | CC50 at 48 h (in vitro [1]) [nM] | EC50 [2] [nM] | further results |
| --- | --- | --- | --- | --- | --- |
| CCCCCCCC(=O)OC[C@H]1O[C@@](C#N)(c2ccc3c(N)ncnn23)[C@H](O)[C@@H]1O [Compound 20, ((2R,3S,4R,5R)-5-(4-aminopyrrolo[2,1-f][1,2,4]triazin-7-yl)-5-cyano-3,4-dihydroxytetrahydrofuran-2-yl)methyl octanoate] | 272 | 610 | > 10000 | 841 |  |
| CC(C)(C)CC(=O)OC[C@H]1O[C@@](C#N)(c2ccc3c(N)ncnn23)[C@H](O)[C@@H]1O [Compound 21, ((2R,3S,4R,5R)-5-(4-aminopyrrolo[2,1-f][1,2,4]triazin-7-yl)-5-cyano-3,4-dihydroxytetrahydrofuran-2-yl)methyl 3,3-dimethylbutanoate] | 2280 | 11400 | > 10000 | 1850 |  |
| N#C[C@@]1(c2ccc3c(N)ncnn23)O[C@H](COC(=O)Cc2ccccc2)[C@@H](O)[C@H]1O [Compound 22, ((2R,3S,4R,5R)-5-(4-aminopyrrolo[2,1-f][1,2,4]triazin-7-yl)-5-cyano-3,4-dihydroxytetrahydrofuran-2-yl)methyl 2-phenylacetate] | 218 | 850 |  | 790 | CC50 (in vitro [1]; 48 hours, CellTiter-Glo, read-out: A549-hACE2 CC50): > 10000 nM |
| Cc1ccc(C(=O)OC[C@H]2O[C@@](C#N)(c3ccc4c(N)ncnn34)[C@H](O)[C@@H]2O)cc1 [Compound 23, ((2R,3S,4R,5R)-5-(4-aminopyrrolo[2,1-f][1,2,4]triazin-7-yl)-5-cyano-3,4-dihydroxytetrahydrofuran-2-yl)methyl 4-methylbenzoate] | 197 | 1090 | > 10000 | 249 |  |
| N#C[C@@]1(c2ccc3c(N)ncnn23)O[C@H](COC(=O)C2CC3CCCC3C2)[C@@H](O)[C@H]1O (stereo partly drawn) [Compound 24, ((2R,3S,4R,5R)-5-(4-aminopyrrolo[2,1-f][1,2,4]triazin-7-yl)-5-cyano-3,4-dihydroxytetrahydrofuran-2-yl)methyl octahydropentalene-2-carboxylate] | 185 | 800 | > 10000 | 801 |  |
| CCCC(=O)OC[C@H]1O[C@@](C#N)(c2ccc3c(N)ncnn23)[C@H](O)[C@@H]1O [Compound 25, ((2R,3S,4R,5R)-5-(4-aminopyrrolo[2,1-f][1,2,4]triazin-7-yl)-5-cyano-3,4-dihydroxytetrahydrofuran-2-yl)methyl butyrate] | 224 | 1220 | > 10000 | 601 |  |
| N#C[C@@]1(c2ccc3c(N)ncnn23)O[C@H](COC(=O)C2CCC2)[C@@H](O)[C@H]1O [Compound 26, ((2R,3S,4R,5R)-5-(4-aminopyrrolo[2,1-f][1,2,4]triazin-7-yl)-5-cyano-3,4-dihydroxytetrahydrofuran-2-yl)methyl cyclobutanecarboxylate] | 337 | 1190 | > 10000 | 1080 |  |
| N#C[C@@]1(c2ccc3c(N)ncnn23)O[C@H](COC(=O)C2CC3(CCC3)C2)[C@@H](O)[C@H]1O [Compound 27, ((2R,3S,4R,5R)-5-(4-aminopyrrolo[2,1-f][1,2,4]triazin-7-yl)-5-cyano-3,4-dihydroxytetrahydrofuran-2-yl)methyl spiro[3.3]heptane-2-carboxylate] | 243 | 560 | > 10000 | 1490 |  |
| N#C[C@@]1(c2ccc3c(N)ncnn23)O[C@H](COC(=O)C2CCCC2)[C@@H](O)[C@H]1O [Compound 28, ((2R,3S,4R,5R)-5-(4-aminopyrrolo[2,1-f][1,2,4]triazin-7-yl)-5-cyano-3,4-dihydroxytetrahydrofuran-2-yl)methyl cyclopentanecarboxylate] | 268 | 430 | 40000 | 1800 |  |
| N#C[C@@]1(c2ccc3c(N)ncnn23)O[C@H](COC(=O)C2CCCCCC2)[C@@H](O)[C@H]1O [Compound 29, ((2R,3S,4R,5R)-5-(4-aminopyrrolo[2,1-f][1,2,4]triazin-7-yl)-5-cyano-3,4-dihydroxytetrahydrofuran-2-yl)methyl cycloheptanecarboxylate] | 194 | 300 | 38000 | 2640 |  |
| CC(=O)OC[C@H]1O[C@@](C#N)(c2ccc3c(N)ncnn23)[C@H](O)[C@@H]1O [Compound 30, ((2R,3S,4R,5R)-5-(4-aminopyrrolo[2,1-f][1,2,4]triazin-7-yl)-5-cyano-3,4-dihydroxytetrahydrofuran-2-yl)methyl acetate] | 643 | 2320 | > 50000 | 2370 |  |
| CCCCCC(=O)OC[C@H]1O[C@@](C#N)(c2ccc3c(N)ncnn23)[C@H](O)[C@@H]1O [Compound 31, ((2R,3S,4R,5R)-5-(4-aminopyrrolo[2,1-f][1,2,4]triazin-7-yl)-5-cyano-3,4-dihydroxytetrahydrofuran-2-yl)methyl hexanoate] | 198 | 320 | 24000 | 2740 |  |
| CC(C)(C)C(=O)OC[C@H]1O[C@@](C#N)(c2ccc3c(N)ncnn23)[C@H](O)[C@@H]1O [Compound 32, ((2R,3S,4R,5R)-5-(4-aminopyrrolo[2,1-f][1,2,4]triazin-7-yl)-5-cyano-3,4-dihydroxytetrahydrofuran-2-yl)methyl pivalate] | 590 | 2320 | > 50000 | 581 |  |
| O=c1nc(NO)ccn1[C@@H]1O[C@H](CO)[C@@H](O)[C@H]1O [NHC, β-d-N^4-hydroxycytidine] |  |  |  |  | NHC AUCinf. ([3]; plasma): 8.48 µM·h; Cmax ([3]; plasma, read-out: NHC Cmax): 3.13 µM; NHC F % (based on NHC mg-eq dose) [3]: 37.0%; Human GI S9 T1/2 (in vitro [4]): >11.7 h |
| CCC(CC)COC(=O)[C@H](C)N[P@](=O)(OC[C@H]1O[C@@](C#N)(c2ccc3c(N)ncnn23)[C@H](O)[C@@H]1O)Oc1ccccc1 [Remdesivir] |  |  |  |  | EC50 (SARS-CoV-2-Nluc viruses; Severe acute respiratory syndrome coronavirus 2, host cells A549-ACE2, read-out: EC50, WA1/2020-nano luciferase): 67 nM; CC50 (in vitro [1]; host cells A549-ACE2, read-out: CC50, A549-ACE2): > 16700 nM; CC50 (in vitro [5]): > 100000 nM; CC50 (in vitro [6]): > 100000 nM; CC50 (in vitro [7]; CC50, DF2 HAE, primary diseased (asthma) HAE donor DF2, 72 hours): > 33000 nM; CC50 (in vitro [7]; CC50, M2 HAE, primary HAE donor M2, 72 hours): 102000 nM; CC50 (in vitro [7]; CC50, M6 HAE, primary HAE donor M6, 72 hours): > 100000 nM |
